The values below come from paper PMC6520937 (Viruses, 2019).

Several values for one entry are separate records, joined by “and”; a condition that tells them apart may be missing. Equal values may be shown once. Read-outs that look alike come from different tables or passages of the source.

Series [1] relates to SFTSV. Type of series: cell-based, Severe fever with thrombocytopenia syndrome virus. The following applies: pH 5.
The subject of series [2] is SFTSV. Format: cell-based, Severe fever with thrombocytopenia syndrome virus.
Series [3] relates to SFTSV. As to the kind of experiment: microbe, parasite or virus in culture. Type of series: cell-based.
A further series is described as follows: in vitro. The settings on record: African green monkey.
Series [4] has as its system SFTSV. Type of series: cell-based, Severe fever with thrombocytopenia syndrome virus. This is another data set of the same source.
In series [5] the test system is SFTSV. Format: cell-based, Severe fever with thrombocytopenia syndrome virus. This is another data set of the same source.
For series [6], the system named is SFTSV. As to the kind of experiment: microbe, parasite or virus in culture. Format: cell-based. The settings on record: for IC50: Severe fever with thrombocytopenia syndrome virus.
For series [7], the system named is SFTSV. The following applies: read-out: IC50 against SFTSV; cited from earlier work.
The subject of series [8] is SFTSV. Format: cell-based, Severe fever with thrombocytopenia syndrome virus. This is another data set of the same source.

What is called IC50 is the midpoint of a concentration-inhibition curve. By IC99 is commonly meant the concentration at which the effect reaches the 99% level.

As for `Oc1c(Cl)cc(Cl)c(Cl)c1Cc1c(O)c(Cl)cc(Cl)c1Cl` [Hexachlorophene, hexachlorophene], the “syncytium formation in SFTSV-infected cells” value in the series with SFTSV [1] is on record as “dramatically inhibited”. The “intracellular viral RNA load vs DMSO, drug co-mixed with SFTSV” value with SFTSV [2] is “Significantly lower viral RNA load”. The same molecule gave a plaque reduction in the series with SFTSV [3] of 100%. In the series on SFTSV [3] (Severe fever with thrombocytopenia syndrome virus, Vero, read-out: IC50, plaque reduction assay), the half-maximal inhibitory concentration (IC50) came out at 2600 ± 140 nM. Also, the CC50 in “in vitro” worked out at 24.3 ± 3.2 µM. The “inhibitory activity on virus attachment, cells pretreated with drug” value in the series on SFTSV [4] is recorded as “no significant”. The “virus infectivity after pre-incubation of SFTSV with drug” value in the series on SFTSV [5] is “not significantly”. In the series on SFTSV [6], the IC99 is 7.5 ± 1.2 µM, the “Selectivity Index (CC50/IC50)” value came out at 18.7 and the concentration for half-maximal inhibition (IC50) was determined as 1.3 ± 0.3 µM. For the same molecule, the IC50 with SFTSV [6] (read-out: IC50 against SFTSV) fell in the range of 1.3 to 2.6 µM.

`Nc1ccn([C@@H]2O[C@H](CO)[C@@H](O)[C@H]2F)c(=O)n1` [2′-fluoro-2′-deoxycytidine]: the 50% inhibitory concentration (IC50) in the series with SFTSV [7] is 3.7 µM.

For the molecule `NC(=O)c1nc(F)c[nH]c1=O` [favipiravir], in the series with SFTSV [2], the “intracellular viral RNA load vs DMSO, drug co-mixed with SFTSV” value is on record as “no statistically significant difference”. Besides, the “difference in SFTSV RNA load between drug-treated and DMSO-treated groups” value in the series with SFTSV [6] is reported as “approximately 4 log10”. Further, in the series on SFTSV [8], the “fold read-out between drug-treated and DMSO-treated groups by ELISA” value was > 10 fold and > 15 fold. Besides, the 50% inhibitory concentration (IC50) in the series with SFTSV [7] is 25 µM.

Consider `Oc1c(Br)cc(Br)c2cccnc12` [Broxyquinoline, broxyquinoline], for which, in “in vitro”, the CC50 is 36.4 ± 5.5 µM. Besides, in the series on SFTSV [6], the IC99 is on record as 16.3 ± 4.3 µM, the “Selectivity Index (CC50/IC50)” value is given as 6.3 and it took 5.8 ± 1.3 µM to reach half-maximal inhibition (IC50).

Consider `NC(=O)c1ncn([C@@H]2O[C@H](CO)[C@@H](O)[C@H]2O)n1` [ribavirin], for which the IC50 in the series on SFTSV [7] is 40.1 µM.

`Oc1cc(Cl)ccc1Oc1ccc(Cl)cc1Cl` [Triclosan, triclosan] returned a CC50 in “in vitro” of 17.7 ± 2.9 µM. For the same molecule, in the series on SFTSV [6], the IC99 is 8.5 ± 2.1 µM, the “Selectivity Index (CC50/IC50)” value stood at 5.5 and half-maximal inhibition (IC50) required 3.2 ± 0.4 µM.

The molecule `CC1=NN(c2ccc(C)c(C)c2)C(=O)/C1=N\Nc1cccc(-c2cccc(C(=O)O)c2)c1O` [Eltrombopag, eltrombopag] yielded a CC50 in the series “in vitro” of 18.4 ± 0.2 µM. Further, in the series on SFTSV [6], the IC99 amounted to 10.3 ± 3.4 µM, the “Selectivity Index (CC50/IC50)” value stood at 4.5 and the IC50 came to 4.1 ± 0.2 µM.

On to `CNC(=O)c1cc(Oc2ccc(NC(=O)Nc3ccc(Cl)c(C(F)(F)F)c3)c(F)c2)ccn1` [Regorafenib, regorafenib], for which, in “in vitro”, the CC50 amounted to 31.3 ± 0.5 µM. Further, in the series on SFTSV [6], the 99% effect concentration (IC99) is 11.3 ± 0.5 µM, the “Selectivity Index (CC50/IC50)” value stood at 7.0 and the IC50 turned out to be 4.5 ± 0.5 µM.

`O=C(O)/C=C/c1ccc(O)c(O)c1` [caffeic acid]: the IC50 in the series with SFTSV [7] is 180 µM.

`CCN(CC)Cc1cc(Nc2ccnc3cc(Cl)ccc23)ccc1O` [amodiaquine]: the concentration for half-maximal inhibition (IC50) in the series with SFTSV [7] is 19.1 µM.
